# From patent US8053418B2, “Anti-penicillin resistant pneumococci agent and novel 16-membered macrolide derivative” (Microbial Chemistry Research Foundation, priority 2005, dated 2011)
# Read-outs that look alike come from different tables or passages of the source.
# Experiments:
# Type in all cases: cell-based
# [1] = system: Streptococcus pneumoniae IMC B-0919 (PRSP); experiment: Antimicrobial activity test (MIC), clinical isolate IMC B-0919
# Experimental: (§1) Using Streptococcus pneumoniae that include clinical isolates of PRSP, the antimicrobial activity of each of the prepared anti-PRSP agents was measured in accordance with the “determination method of minimum inhibitory concentration of drug against bacteria” of Japanese Society of Chemotherapy (for re-revised version, see Chemotherapy 29; 76, 1981).
# (§2) 11 test strains of Streptococcus pneumoniae including IMC B-0919 are all clinical isolates, of which 2 strains, IMC B-0921 and IMC B-1229, are classified into penicillin susceptible Streptococcus pneumoniae (PSSP) and the remaining 9 strains are classified into penicillin-resistant Streptococcus pneumoniae (PRSP) (according to NCCLS standards).
# [2] = system: Streptococcus pneumoniae IMC B-0920 (PRSP); experiment: Antimicrobial activity test (MIC), clinical isolate IMC B-0920
# Experimental: as §1, §2
# [3] = system: Streptococcus pneumoniae IMC B-0922 (PRSP); experiment: Antimicrobial activity test (MIC), clinical isolate IMC B-0922
# Experimental: as §1, §2
# [4] = system: Streptococcus pneumoniae IMC B-1231 (PRSP); experiment: Antimicrobial activity test (MIC), clinical isolate IMC B-1231
# Experimental: as §1, §2
# [5] = system: Streptococcus pneumoniae IMC B-1232 (PRSP); experiment: Antimicrobial activity test (MIC), clinical isolate IMC B-1232
# Experimental: as §1, §2
# [6] = system: Streptococcus pneumoniae IMC B-1233 (PRSP); experiment: Antimicrobial activity test (MIC), clinical isolate IMC B-1233
# Experimental: as §1, §2
# [7] = system: Streptococcus pneumoniae IMC B-1234 (PRSP); experiment: Antimicrobial activity test (MIC), clinical isolate IMC B-1234
# Experimental: as §1, §2
# [8] = system: Streptococcus pneumoniae IMC B-1235 (PRSP); experiment: Antimicrobial activity test (MIC), clinical isolate IMC B-1235
# Experimental: as §1, §2
# [9] = system: Streptococcus pneumoniae IMC B-1236 (PRSP); experiment: Antimicrobial activity test (MIC), clinical isolate IMC B-1236
# Experimental: as §1, §2
# [10] = system: Streptococcus pneumoniae IMC B-0921 (PSSP); experiment: Antimicrobial activity test (MIC), clinical isolate IMC B-0921
# Experimental: as §1, §2
# [11] = system: Streptococcus pneumoniae IMC B-1229 (PSSP); experiment: Antimicrobial activity test (MIC), clinical isolate IMC B-1229
# Experimental: as §1, §2
# [12] = PRSP clinical isolate IMC B-0919
# [13] = PRSP clinical isolate IMC B-0920
# [14] = PRSP clinical isolate IMC B-0922
# [15] = PRSP clinical isolate IMC B-1231
# [16] = PRSP clinical isolate IMC B-1232
# [17] = PRSP clinical isolate IMC B-1233
# [18] = PRSP clinical isolate IMC B-1234
# [19] = PRSP clinical isolate IMC B-1235
# [20] = PRSP clinical isolate IMC B-1236
# [21] = PSSP clinical isolate IMC B-0921
# [22] = PSSP clinical isolate IMC B-1229
# [23] = Streptococcus pneumoniae IMC B-0919, PRSP
# [24] = Streptococcus pneumoniae IMC B-0920, PRSP
# [25] = Streptococcus pneumoniae IMC B-0922, PRSP
# [26] = Streptococcus pneumoniae IMC B-1231, PRSP
# [27] = Streptococcus pneumoniae IMC B-1232, PRSP
# [28] = Streptococcus pneumoniae IMC B-1233, PRSP
# [29] = Streptococcus pneumoniae IMC B-1234, PRSP
# [30] = Streptococcus pneumoniae IMC B-1235, PRSP
# [31] = Streptococcus pneumoniae IMC B-1236, PRSP
# [32] = Streptococcus pneumoniae IMC B-0921, PSSP
# [33] = Streptococcus pneumoniae IMC B-1229, PSSP
# [34] = Streptococcus pneumoniae IMC B-0919, PRSP, read-out: MIC
# [35] = Streptococcus pneumoniae IMC B-0920, PRSP, read-out: MIC
# [36] = Streptococcus pneumoniae IMC B-0922, PRSP, read-out: MIC
# [37] = Streptococcus pneumoniae IMC B-1231, PRSP, read-out: MIC
# [38] = Streptococcus pneumoniae IMC B-1232, PRSP, read-out: MIC
# [39] = Streptococcus pneumoniae IMC B-1233, PRSP, read-out: MIC
# [40] = Streptococcus pneumoniae IMC B-1234, PRSP, read-out: MIC
# [41] = Streptococcus pneumoniae IMC B-1235, PRSP, read-out: MIC
# [42] = Streptococcus pneumoniae IMC B-1236, PRSP, read-out: MIC
# [43] = Streptococcus pneumoniae IMC B-0921, PSSP, read-out: MIC
# [44] = Streptococcus pneumoniae IMC B-1229, PSSP, read-out: MIC
smiles,measurement,setting,value
CCC1OC(=O)CCC(C)C(OC2OC(C)CC(N(C)C)C2O)C(CC=O)CC(C)C(=O)C=CC(C)=CC1CN(C)C (centres unmarked) [MKT-3101],MIC,[1]; [12],0.78 µg/mL
same,MIC,[2]; [13],0.78 µg/mL
same,MIC,[3]; [14],0.39 µg/mL
same,MIC,[4]; [15],12.5 µg/mL
same,MIC,[5]; [16],0.2 µg/mL
same,MIC,[6]; [17],0.2 µg/mL
same,MIC,[7]; [18],0.2 µg/mL
same,MIC,[8]; [19],25 µg/mL
same,MIC,[9]; [20],50 µg/mL
same,MIC,[10]; [21],0.2 µg/mL
same,MIC,[11]; [22],0.2 µg/mL
CCC1OC(=O)CCC(C)C(OC2OC(C)CC(N(C)C)C2O)C(CC=O)CC(C)C(=O)C=CC(C)=CC1CNC(C)=O (centres unmarked) [MKT-3201],MIC,[1]; [12],0.78 µg/mL
same,MIC,[2]; [13],0.78 µg/mL
same,MIC,[3]; [14],0.39 µg/mL
same,MIC,[4]; [15],1.56 µg/mL
same,MIC,[5]; [16],0.39 µg/mL
same,MIC,[6]; [17],0.39 µg/mL
same,MIC,[7]; [18],0.39 µg/mL
same,MIC,[8]; [19],12.5 µg/mL
same,MIC,[9]; [20],50 µg/mL
same,MIC,[10]; [21],0.2 µg/mL
same,MIC,[11]; [22],0.2 µg/mL
CCC1OC(=O)CCC(C)C(OC2OC(C)CC(N(C)C)C2O)C(CC=O)CC(C)C(=O)C=CC(C)=CC1CNC(=O)Cc1cccnc1 (centres unmarked) [MKT-3216],MIC,[1]; [23],0.10 µg/mL
same,MIC,[2]; [24],0.10 µg/mL
same,MIC,[3]; [25],0.10 µg/mL
same,MIC,[4]; [26],6.25 µg/mL
same,MIC,[5]; [27],0.05 µg/mL
same,MIC,[6]; [28],0.05 µg/mL
same,MIC,[7]; [29],0.05 µg/mL
same,MIC,[8]; [30],12.5 µg/mL
same,MIC,[9]; [31],12.5 µg/mL
same,MIC,[10]; [32],0.10 µg/mL
same,MIC,[11]; [33],0.10 µg/mL
CCC1OC(=O)CCC(C)C(OC2OC(C)CC(N(C)C)C2O)C(CC=O)CC(C)C(=O)C=CC(C)=CC1CN(C)CCc1ccc(OC)c(OC)c1 (centres unmarked) [MKT-6104],MIC,[1]; [12],1.56 µg/mL
same,MIC,[2]; [13],0.78 µg/mL
same,MIC,[3]; [14],0.78 µg/mL
same,MIC,[4]; [15],50 µg/mL
same,MIC,[5]; [16],1.56 µg/mL
same,MIC,[6]; [17],1.56 µg/mL
same,MIC,[7]; [18],1.56 µg/mL
same,MIC,[8]; [19],25 µg/mL
same,MIC,[9]; [20],25 µg/mL
same,MIC,[10]; [21],0.78 µg/mL
same,MIC,[11]; [22],1.56 µg/mL
CCC1OC(=O)CCC(C)C(OC2OC(C)CC(N(C)C)C2O)C(CC=O)CC(C)C(=O)C=CC(C)=CC1CN1CCC(CCO)CC1 (centres unmarked) [MKT-6113],MIC,[1]; [23],0.78 µg/mL
same,MIC,[2]; [24],1.56 µg/mL
same,MIC,[3]; [25],1.56 µg/mL
same,MIC,[4]; [26],>50 µg/mL
same,MIC,[5]; [27],1.56 µg/mL
same,MIC,[6]; [28],0.78 µg/mL
same,MIC,[7]; [29],0.39 µg/mL
same,MIC,[8]; [30],>50 µg/mL
same,MIC,[9]; [31],>50 µg/mL
same,MIC,[10]; [32],0.20 µg/mL
same,MIC,[11]; [33],0.39 µg/mL
"CC[C@H]1OC(=O)[C@H](C)[C@@H](O[C@H]2C[C@@](C)(OC)[C@@H](O)[C@H](C)O2)[C@H](C)[C@@H](O[C@@H]2O[C@H](C)C[C@H](N(C)C)[C@H]2O)[C@](C)(OC)C[C@@H](C)C(=O)[C@H](C)[C@@H](O)[C@]1(C)O [clarithromycin, reference compound]",MIC,[1]; [34],0.2 µg/mL
same,MIC,[2]; [35],0.2 µg/mL
same,MIC,[3]; [36],0.2 µg/mL
same,MIC,[4]; [37],25 µg/mL
same,MIC,[5]; [38],0.39 µg/mL
same,MIC,[6]; [39],0.05 µg/mL
same,MIC,[7]; [40],0.05 µg/mL
same,MIC,[8]; [41],> 100 µg/mL
same,MIC,[9]; [42],> 100 µg/mL
same,MIC,[10]; [43],0.1 µg/mL
same,MIC,[11]; [44],0.1 µg/mL
"CC[C@H]1OC(=O)C[C@@H](O)[C@H](C)[C@@H](O[C@@H]2O[C@H](C)[C@@H](O[C@H]3C[C@@](C)(O)[C@@H](O)[C@H](C)O3)[C@H](N(C)C)[C@H]2O)[C@@H](CC=O)C[C@@H](C)C(=O)/C=C/C(C)=C/[C@@H]1CO[C@@H]1O[C@H](C)[C@@H](O)[C@@H](OC)[C@H]1OC [tylosin, reference compound]",MIC,[1]; [34],0.39 µg/mL
same,MIC,[2]; [35],0.39 µg/mL
same,MIC,[3]; [36],0.39 µg/mL
same,MIC,[4]; [37],100 µg/mL
same,MIC,[5]; [38],0.39 µg/mL
same,MIC,[6]; [39],0.78 µg/mL
same,MIC,[7]; [40],0.39 µg/mL
same,MIC,[8]; [41],> 100 µg/mL
same,MIC,[9]; [42],> 100 µg/mL
same,MIC,[10]; [43],0.39 µg/mL
same,MIC,[11]; [44],0.39 µg/mL
